# Test results published in US20080119567A1, “Methods of use of herbal compositions” (priority 2003, published 2008).
# Several values for one entry are separate records, joined by “and”; a condition that tells them apart may be missing. Equal values may be shown once.
# Experiments:
# H. pylori (ATCC 43504) = test: Minimum inhibitory concentration by agar dilution method; format: cell-based, Helicobacter pylori; set-up: key: scored positive (+) for inhibition/eradication of colonies growth; negative (−) for no effect upon growth colonies; settings: 0.3 μg/ml; 37° C., 72 hours, n=2
# Protocol: Minimum inhibitory concentration is determined by the agar dilution method. 2 mg of test substance, composition of geranium oil and extracts from S. flavescenes prepared for injections (MIC-1), is dissolved and serially diluted in solvent (distilled water) to desired stock concentrations. For each concentration tested, a 10 μl aliquot is added to a 48-well plate containing 0.99 ml of Columbia agar base supplemented with 7% defibrinated rabbit blood. The inoculum of H. pylori (ATCC 43504) is prepared by suspending in brain heart infustion broth to a density of 5×10^8 CFU/ml. A multiprong-incubating device is used to place approximately 5×10^5 CFU/ml per spot onto the containing agent media. […] The plates are incubated at 37° C. for 72 hours in the microaerophilic condition (mixed gas N2 85%, CO2 10%, and O2 5%) and then visually examined and scored positive (+) for inhibition/eradication of colonies growth or negative (−) for no effect upon growth colonies. […] Each concentration is evaluated in duplicate.
# Minimum inhibitory concentration is determined by the agar dilution method. […] The plates are incubated at 37° C. for 72 hours in the microaerophilic condition (mixed gas N2 85%, CO2 10%, and O2 5%) and then visually examined and scored positive (+) for inhibition/eradication of colonies growth or negative (−) for no effect upon growth colonies. […] Each concentration is evaluated in duplicate. […]
# [1] = test system: Helicobacter pylori (clinical isolate strain); test: Gastric ulceration after Helicobacter pylori inoculation in mice (Example 11); format: in vivo, ICR derived mice; settings: 24.5 ml/kg × 2 × 7 PO (text: 24.5 mg/kg)
# Protocol: Seven groups of 5 male ICR derived mice weighing 24±2 grams were fasted for 18 hours before the intragastric inoculation of Helicobacter pylori (clinical isolate strain) in suspension at 1.5×10^9 CFU/0.4 ml/mouse. […] Subsequently, test substances and vehicle were each administered orally twice daily (9:00 A.M. and 16:00 P.M.) for […]. omeprazole 1 mg/kg and clarithromycin 10 mg/kg in combination was used as a positive control agent and was administered orally to test animals once daily (9:00 A.M.) for 7 consecutive days. Seven days after infection, on day eight, all animals with overnight fasting were sacrificed and the stomachs were dissected along the greater curvature. Gastric ulceration was scored at four levels according to the degree of hemorrhage and the severity of ulcerative lesions: 0=normal appearance, 1=mild red spots, 2=moderate red spots and/or hemorrhage spots, 3=marked hemorrhage spots. Reduction of concurrent vehicle control score values by 50 percent or more (≧50%) is considered significant. Test substances and vehicle control (2% TWEEN 80® in 0.9% NaCl solution) were each administered orally to test animals twice daily for 7 consecutive days. The Helicobacter pylori (1.5×10^9 CFU/0.4 ml/mouse) inoculation was applied one hour before the first dosing on day 1. […]
# [2] = Pharmacokinetics study of intravenous injection with and without geranium oil; format: in vivo, mice
compound,measurement,setting,value
gentamicin,Result (inhibition/eradication of colonies growth),H. pylori (ATCC 43504),+
"CC(C)=CCCC(C)CCO (centres unmarked) [MIC-20, citronellol]",Ulceration Score Total,[1]; N=5,3
same,Ulceration Score Individual,"[1]; mice 1-5, score 0-3",0 (3×) and 2 and 1
O=C1CCC[C@@H]2[C@H]3CCCN4CCC[C@@H](CN12)[C@@H]34 [matrine],effect of addition of geranium oil on absorption and metabolism (HPLC peak areas over time),"[2]; intravenous injection, mice, with geranium oil vs alone",increase the absorption and metabolism
O=C1CCC[C@@H]2[C@H]3CCC[N+]4([O-])CCC[C@@H](CN12)[C@@H]34 (some centres unmarked) [oxymatrine],effect of addition of geranium oil on absorption and metabolism (HPLC peak areas over time),"[2]; mouse, in vivo, iv",increase the absorption and metabolism
